Reference: patent US20150025052A1, “Compositions and Methods for Inhibiting HSP90/HSP70 Machinery” (Georgia Regents Research Institute, Inc., priority 2013, published 2015)
pIC50: −log10 of the molar value.

What was measured:
[1] = tested on: NCI 60-cell panel; details: read-out: Growth Inhibition of 50% (GI50); cited from earlier work
[2] = tested on: HCT 116 colon cancer cells; details: cited from earlier work
[3] = preclinical data; cited from earlier work
[4] = tested on: LNCaP cells; format: cell-based
[5] = tested on: Hsp90 derived from transformed cells overexpressing HER-2 (BT474, N87, SKOV3 and SKBR3); details: cited from earlier work
[6] = tested on: MCF7 cells
[7] = target: T1, Hsp70 multi-chaperone complexes (Homo sapiens, UniProt P0DMV8); assay: Hsp70 complex pull-down and Western blotting in LNCaP cells; format: cell-based; details: 200 μM capsaicin, 6 h
T1 construct: endogenous in cells; host or cells: LNCaP
Experimental: (§1) FIGS. 2A-2F are autoradiographs of composite images of Western immuno-staining blots. […] FIGS. 2D-E show the Hsp90 client proteins HER2, GR, PRB, CDK4, Chk1, Raf-A, Akt and ILK, and the chaperones Hsp70, 2;3, Hsc70, HOP, HDJ2 (Hsp40), p23, Hsp90α and Hsp90β in the presence of DMSO, 2.5 μM 17AAG or 50, 100 or 200 μM capsaicin in HeLa cells (FIG. 2D) or MCF7 cells (FIG. 2E), respectively. In all blots, 2.5 μM 17-AAG was used as a positive control for cellular degradation of several kinases and hormone receptor clients of Hsp90, Beta actin (β-actin) was used a loading control. FIG. 2F is an autoradiograph of a Western blot showing capsaicin altered Hsp70 multi-chaperone complexes in cells. LNCaP cells were treated with 200 μM capsaicin for 6 h and then lysed, and Hsp70 complexes were pulled down using an antibody against Hsp70 on Protein A-Sepharose beads. Western blotting was performed for Hsp70, Hsp40 (HDJ-2), and Hsp90β. Capsaicin reduced Hsp40 and Hsp90 binding to Hsp70. Mouse IgG was used as a control.
FIG. 12 is an autoradiograph of LNCaP cells treated with 200 μM capsaicin for 6 h and then lysed and Western blotted for Hsp70, Hsp40 (HDJ-2), and Hsp90β. Capsaicin reduced Hsp40 and Hsp90 binding to Hsp70. Mouse IgG was used as a control.

[8] = tested on: Hsp70 mRNA; assay: Gene expression assay (RT-PCR) of Hsp70 mRNA in MCF7 cells; format: cell-based
[9] = tested on: Hsp90; assay: Fluorescence emission assay with Hsp90; format: binding; details: Hsp90 15 μM, capsaicin 7.5 μM, excitation 266 nm
Experimental: (§2) FIG. 5A is a histogram showing the ratio of Hsp70 mRNA relative to β-actin in the presence of DMSO, 100 μM or 200 μM capsaicin (Cap) after RT-PCR. FIG. 5B is a graph of fluorescence emission spectra for capsaicin, Hsp70, Hsp70 with capsaicin (Hsp70+C), Hsp90, Hsp90 with capsaicin (Hsp90+C), Hsp40 and Hsp40 with capsaicin (Hsp40+C), at wavelengths between 290 and 440 nm. All chaperones were tested at 15 μM and capsaicin at 7.5 μM. Proteins were incubated for 1 h at room temp in the presence or absence of capsaicin. An excitation wavelength of 266 nm was used.
(§3) To determine the effect of molecular chaperones on the fluorescence emission of capsaicin, all chaperones were tested at 15 μM and capsaicin at 7.5 μM concentrations. Proteins were incubated for 1 h at room temperature in the presence or absence of capsaicin. A 96-well black plate and a SAFIRE-TECAN plate reader were used. The excitation wavelength was 266 nm.

[10] = tested on: Hsp40; assay: Fluorescence emission assay with Hsp40; format: binding; details: Hsp40 15 μM, capsaicin 7.5 μM, excitation 266 nm
Experimental: as §2, §3

[11] = target: Hsp70 (Homo sapiens, UniProt P0DMV8); assay: Fluorescence emission assay with purified Hsp70; format: binding; details: Hsp70 15 μM, capsaicin 7.5 μM, 1 h room temperature, excitation 266 nm
Experimental: as §2, §3

[12] = 5 mg/kg by gavage, three days per week for 2-4 weeks; cited from earlier work
[13] = in vivo; cited from earlier work
[14] = tested on: LC3II and p62/SQSTM1; assay: Western blotting of autophagy markers; format: cell-based
[15] = tested on: Hsp90α, Hsp90β, Hsp40, p23 and Hop; assay: Western blotting of molecular chaperones in cancer cells; format: cell-based; details: 50, 100, 200 μM capsaicin
Experimental: as §1
(§4) Cells were lysed with buffer A (10 mM Tris pH 8.0, 137 mM NaCl, 10% glycerol, 1% Nonident P-40) supplemented with protease inhibitor cocktail (Roche Applied Science catalog no. 11 836 170 001) on ice for 30 minutes, shaking every 5 minutes. Lysate was centrifuged at 16,000×g for 10 minutes. 10 μg of clarified lysates were run on SDS-PAGE (10% gel) and transferred to PVDF membrane. […]

[16] = tested on: MCF7 cells; assay: Microscopy (light, transmission electron) of capsaicin-treated MCF7 cells; format: cell-based
[17] = tested on: Hsp70 (inducible form, Hsp70i); assay: Western blotting of Hsp70 in cancer cells; format: cell-based
[18] = tested on: Hsp90 client proteins (Her2, CDK4, ChK1, Raf-A, Akt, ILK, GR, PR, AR); assay: Western blotting of Hsp90 client proteins in cancer cells; format: cell-based; details: 50, 100, 200 μM capsaicin; HeLa, MCF7, LNCaP cells
Experimental: as §1, §4

[19] = tested on: cancer cells (LNCaP, MCF7, HepG2, HeLa); assay: Colony formation assay; format: cell-based; details: 200 μM capsaicin for 24 h, 15 days growth
Description: FIG. 3A is a line graph of absorbance at 495 nm (arbitrary units) versus Capsaicin dose (μM) of Hs578Bst and MCF7 cells treated with the indicated dose of capsaicin. FIG. 3B is a line graph of absorbance at 495 nm versus time of capsaicin treatment (hours) of Hs578Bst cells and MCF7 cells. Stippled line represents Hs578Bst cells and solid line represents MCF7 cells. FIGS. 3C-F are histograms showing colony number versus treatment with DMSO or Capsaicin in the following cell lines: LNCaP (FIG. 3C), MCF7 (FIG. 3D), HepG2 (FIG. 3E), and HeLa (FIG. 3F). Cells were treated with 200 μM capsaicin for 24 h. Adherent cells were then collected and plated (1000 cells per 10 cm dish) for further incubation. The standard deviation of three dishes is shown as error bars. The experiment was reproduced twice. FIG. 3G is an autoradiograph of cell lysates HeLa, MCF7 and LNCaP treated with 200 μM capsaicin for 24 h; cell lysates were made and Western blotted for p62/SQSTM1 and LC3II. β-actin was used as a loading control. LNCaP cells were treated with 50, 100 and 200 μM capsaicin for 24 h. this experiment was reproduced twice. […] DMSO was used as a control.
Cells were grown in 6-well tissue culture plates to 60% confluence and treated with 200 μM capsaicin or DMSO control for 24 h. […] Cells were fixed with 6% Glutaraldehyde and 0.5% Crystal Violet, and colonies that contained 50 cells were counted. […]

[20] = purified capsaicin; cited from earlier work
[21] = tested on: Hsc70 (constitutive form); assay: Western blotting of Hsc70 in cancer cells; format: cell-based; details: HeLa and MCF7 cells
Experimental: as §1, §4

[22] = tested on: Hsp90/Hsp70 chaperoning machinery (rabbit reticulocyte lysate) with progesterone receptor; assay: Progesterone receptor (PR) reconstitution assay: recovery of hormone binding activity of PR; format: biochemical
Description: To identify small molecule inhibitors of molecular chaperones, a high-throughput functional screen was developed based on the isoform A of progesterone receptor (PRA), a well-established physiological client of Hsp90, and using rabbit reticulocyte lysate (RRL) as a source of molecular chaperones. This comprehensive functional assay measured the recovery of hormone binding activity of PRA after mild heat treatment. Purified PR was adsorbed onto PR22 antibody bound to protein A that was absorbed on 96 well plates. 100 μl of RRL lysate and ATP regeneration system was added to each well. After incubation for 30 min at 30° C., 0.1 μM [3H]-progesterone (American Radiolabeled Chemicals, Inc #ART 0063) was added. Plates were incubated on ice for 2 h at 4° C. Complexes were then washed three times with 200 μl of reaction buffer (20 mM Tris/HCl, pH 7.5, 5 mM MgCl2, 2 mM DTT, 0.01% NP-40, 50 mM KCl and 5 mM ATP) and assessed for bound progesterone by liquid scintillation using PerkinElmer Microbeta plate reader.
PR complexes were reconstituted on a 96-well plate; the first eight samples contain the following internal controls: 1. Protein A alone, 2. Protein A+PR22, 3. Protein A+PR22+PR, 4. Protein A+PR22+PR+RRL, 5. Protein A+PR22+PR+RRL+17-AAG (20 μM), 6. Protein A+PR22+PR+RRL+Myrecetin (20 μM), 7. Protein A+PR22+PR+RRL+geldanamycin (20 μM), 8. Protein A+PR22+PR+RRL+gedunin (20 μM). […]

Sequence of Hsp70 (P0DMV8 2-641 limits assumed): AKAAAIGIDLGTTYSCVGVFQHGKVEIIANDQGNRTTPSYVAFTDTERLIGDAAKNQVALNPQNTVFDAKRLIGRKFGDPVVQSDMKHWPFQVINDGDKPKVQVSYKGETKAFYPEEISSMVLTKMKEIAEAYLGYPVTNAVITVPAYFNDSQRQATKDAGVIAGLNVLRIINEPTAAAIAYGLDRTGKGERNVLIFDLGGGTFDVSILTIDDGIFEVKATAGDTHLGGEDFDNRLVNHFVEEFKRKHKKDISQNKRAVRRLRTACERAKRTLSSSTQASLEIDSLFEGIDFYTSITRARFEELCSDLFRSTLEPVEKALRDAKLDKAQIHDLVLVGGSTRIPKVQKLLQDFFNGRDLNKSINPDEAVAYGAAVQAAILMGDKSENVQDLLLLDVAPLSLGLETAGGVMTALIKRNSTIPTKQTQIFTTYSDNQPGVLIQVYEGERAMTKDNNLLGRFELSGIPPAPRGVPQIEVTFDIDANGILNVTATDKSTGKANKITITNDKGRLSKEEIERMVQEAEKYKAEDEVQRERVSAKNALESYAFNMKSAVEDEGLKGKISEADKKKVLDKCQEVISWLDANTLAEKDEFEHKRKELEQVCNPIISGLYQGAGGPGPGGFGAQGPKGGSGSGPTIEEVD
T1 sequence (P0DMV8 2-641 limits assumed, one chain of several): as the sequence (P0DMV8 2-641 limits assumed) above

CO[C@H]1/C=C\C=C(/C)C(=O)NC2=CC(=O)C(NCCN(C)C)=C(C[C@@H](C)C[C@H](OC)[C@H](O)[C@@H](C)/C=C(\C)[C@@H]1OC(N)=O)C2=O [17-DMAG, 17-Dimethylaminoethylamino-17-demethoxygeldanamycin]
GI50 [1]: 51 nM

COc1cc(CNC(=O)CCCCCCC(C)C)ccc1O [dihydrocapsaicin]
mitoautophagy [2]: induces mitoautophagy

CC(C)c1cc(-c2n[nH]c(=O)n2-c2ccc3c(ccn3C)c2)c(O)cc1O [Ganetespib]
cardiac or liver toxicity [3]: no evidence of cardiac or liver toxicity

C=CCNC1=C2C[C@@H](C)C[C@H](OC)[C@H](O)[C@@H](C)/C=C(\C)[C@H](OC(N)=O)[C@@H](OC)/C=C\C=C(/C)C(=O)NC(=CC1=O)C2=O [17-AAG, 17-allylamino-17-demethoxygeldanamycin]
cell killing (relative survival) [4]: very little effect or no effect | GI50 [1]: 120 nM | pIC50 ([5]; Hsp90 from HER-2 overexpressing cells or BT474 breast carcinoma cells): 8.22 to 8.30 | higher affinity for Hsp90 derived from transformed cells ([5]; relative to non-tumor cells): more than 100 × | cytotoxicity (cell survival) [6]: minimal cytotoxicity

COc1cc(CNC(=O)CCCC/C=C/C(C)C)ccc1O [capsaicin, 8-Methyl-N-vanillyl-trans-6-nonenamide]
cell killing (relative survival) [4]: very little effect or no effect | Hsp40 and Hsp90 binding to Hsp70 [7]: reduced | level of Hsp70 mRNA ([8]; 100 or 200 μM capsaicin, 24 h (FIG. 5A)): No change | level of Hsp70 mRNA ([8]; capsaicin 200 μM, 17-AAG 200 nM (FIG. 7A)): slightly increased | capsaicin fluorescence emission in presence of Hsp90 [9]: may not significantly change | capsaicin fluorescence emission in presence of Hsp40 [10]: may not significantly change | capsaicin fluorescence emission in presence of Hsp70 [11]: completely quenched | toxicity symptoms [12]: No toxicity symptoms were observed | pharmacokinetic half-life [13]: approximately 24 hours | LC3II modification ([14]; HeLa cells, 200 μM capsaicin 24 h): no LC3II modification | LC3B modification ([14]; LNCaP cells, 50, 100, 200 μM capsaicin 24 h): concentration-dependent induction | LC3II levels ([14]; MCF7 and LNCaP cells, 200 μM capsaicin 24 h): significantly increased | p62/SQSTM1 protein level ([14]; capsaicin treatment, Western blot): accumulation | expression level of molecular chaperones Hsp90α, Hsp90β, Hsp40, p23 and Hop [15]: did not affect | mitophagy [16]: induced mitophagy | level of Hsp70 ([17]; HeLa and MCF7 cells): reduced the level of Hsp70 | degradation of Hsp70 ([17]; HeLa, LNCaP, MCF7, Hs578T and MDA-MB-231, 24 h): reproducibly caused degradation | level of Hsp70 after 6 h of treatment ([17]; LNCaP cells, 200 μM capsaicin, 6 h (FIG. 12)): not significantly down | stabilization of Hsp70 protein by autophagy inhibitor 3MA ([17]; capsaicin 200 μM (alone or with 17-AAG) plus 3MA 5 mM, 6 h): almost fully stabilizes | rescue of Hsp70 protein by proteasome inhibitor MG132 ([17]; capsaicin 200 μM plus MG132 20 μM, 6 h): does not rescue | Hsp70 protein level ([17]; capsaicin 200 μM, 17-AAG 200 nM (FIG. 7C)): decreased | cellular degradation of Hsp90 client proteins [18]: caused cellular degradation | ability of cancer cells to form colonies [19]: efficiently reduces | solubility in alcohol, fats and oils [20]: freely soluble | solubility in cold water [20]: insoluble | cell death of MCF7 cancer cells [6]: caused cell death | cytotoxicity (cell survival) [6]: minimal cytotoxicity | level of Hsc70 [21]: did not change | blocking the hormone-binding activity of PR ([22]; rescreened in triplicates at 20 μM final concentration): about 40% | modulation of the Hsp90 chaperoning activity ([22]; screen of NIH Clinical Collection library (FIG. 1)): efficient and reproducible modulation
